Assay results taken from the METLIN SMRT retention time set (Domingo-Almenara et al. 2019).

Assay: gradient 5% acetonitrile 3 min, to 50% in 2 min, to 85% in 15 min, held 3 min, 100 µL/min
Conditions: column: Zorbax Extend-C18 2.1 x 50 mm; eluents: water / acetonitrile, 0.1% formic acid
In short: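 Pure standards were analyzed in mixtures of ~100 molecules using HPLC coupled to a quadrupole time-of-flight mass spectrometer, in both positive and negative ionization mode. Separation used a Zorbax Extend-C18 column (2.1 × 50 mm, 1.8 μm) at 100 μL/min, with water and acetonitrile each containing 0.1% formic acid. Dead and dwell volumes were 40 μL and 900 μL, and data were collected over 3 months. Retention time was read from computationally picked adduct peaks, each inspected manually.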

| Compound | RP-LC retention time |
| --- | --- |
| CCOC(=O)c1c(S(=O)(=O)N2CCC(C(=O)NCc3ccccc3OC)CC2)c(C)n(C)c1C | 800 s |
| CCCc1ccc(S(=O)(=O)N2CCC(n3cnnc3C)CC2)cc1 | 767 s |
| CN1c2cc(C(=O)NCc3ccc(F)c(Cl)c3)ccc2C(=O)N2CCCCC21 (stereo not given) | 860 s |
| O=C(Cc1ccc(F)cc1)NCC#CCN1CCc2ccccc2C1 | 565 s |
| CCN(C(C)=O)c1nc(-c2ccc(C3CCCCC3)cc2)cs1 | 848 s |
| CCn1cc(C2=CCN(C(=O)Nc3ccc(OC)cc3)CC2)c2cccnc21 | 811 s |
| COc1ccc(-c2nc3cccnc3n2C2CCN(C(=O)NCC(C)C)C2)cc1 (stereo not given) | 680 s |
| O=C(NC1CC1)C1CCCN(S(=O)(=O)c2c[nH]c(C(=O)N3CCCC3)c2)C1 (stereo not given) | 627 s |
| CCOC(=O)c1c(S(=O)(=O)N2CCC(C(=O)Nc3cc(C)cc(C)c3)CC2)c(C)n(C)c1C | 942 s |
| O=S(=O)(NCC1CCCO1)c1cccc2cccnc12 (stereo not given) | 680 s |
| Cc1ccccc1Cn1cc(-c2ccncc2)cc1C(=O)NC1CC1 | 648 s |
| CCOc1ccc(C(=O)Nc2nc(-c3ccccc3)cs2)cc1Cl | 1260 s |
| Cc1noc(C2CN(C(=O)Nc3ccc(F)cc3F)CC23CCOCC3)n1 (stereo not given) | 695 s |
| COc1cccc(N2CCN(C(=O)c3cc4sccc4n3C)CC2)c1 | 988 s |
| CCc1ccc(CN2C(=O)c3ccccc3C2C(=O)NCC2CCCO2)cc1 (stereo not given) | 830 s |
| COc1cccc(-c2ccc(=O)n(Cc3nc(-c4ccccc4)no3)n2)c1 | 968 s |
| CC1CCC(NC(=O)c2ccc(Cn3cncn3)cc2)CC1 (stereo not given) | 726 s |
| c1ccc(-c2nc(C3CC3)no2)c(OC2CN(Cc3ccncc3)C2)c1 | 611 s |
| O=C(Cc1ccsc1)Nc1cnc(N2CCOCC2)nc1 | 686 s |
| COc1cccc(CNC(=O)C2(C)CCCN(C(=O)Nc3ccccc3)C2)c1 (stereo not given) | 839 s |
| CCc1ccc(CNC(=O)c2cn(CC)nc2S(=O)(=O)N2CCC(C)CC2)cc1 | 1180 s |
| C=C(C)CN1CCN(c2cc(C)nc3c(C)c(-c4ccc(Cl)cc4)nn23)CC1 | 693 s |
| COc1nn(C)cc1C(=O)NCC(=O)NCCOc1ccc(F)cc1 | 626 s |

| Compound | RP-LC retention time |
| --- | --- |
| O=C(C1=CN(c2cccc(Cl)c2)c2ccccc2S1(=O)=O)N1CCCC1 | 814 s |
| CCS(=O)(=O)Nc1ccc2nc(N3CCN(c4cccc(C)c4C)CC3)cc(C(=O)O)c2c1 | 743 s |
| Cn1cc(-c2cc3n(n2)CCC(=O)N3CC(=O)NCCc2c[nH]c3ccccc23)c2ccccc21 | 825 s |
| CCc1cccc(C)c1NC(=O)Cn1c(N(C)Cc2ccccc2)nc(C)cc1=O | 857 s |
| CCOC(=O)N1CCN(C(=O)C2CCN(c3ncnc4c3oc3ccccc34)CC2)CC1 | 673 s |
| CCOc1ccccc1-c1noc(Cn2c(=O)n(C(C)C)c(=O)c3ccccc32)n1 | 1090 s |
| O=C(COc1cc(O)c2c(=O)c3ccccc3oc2c1)c1ccc(Br)cc1 | 1280 s |
| CC(C)c1noc(N2CCC(COc3ccc(-c4ccc(S(C)(=O)=O)cc4)nc3)CC2)n1 | 991 s |
| CCCn1cc(C(=O)Nc2ccc(F)cc2)c(S(=O)(=O)N2CCSCC2)n1 | 1030 s |
| Cc1nc2cc(-c3noc(-c4cccc(F)c4)n3)ccc2o1 | 1110 s |
| CCOC(=O)c1sc2ccccc2c1S(=O)(=O)N1CCN(c2ccccn2)CC1 | 794 s |
| Cc1ccc(C(=O)NC2CCN(c3cc(-c4ccc(Cl)cc4)[nH]n3)C2)cc1 (stereo not given) | 821 s |
| COCCCNC(=O)C1CCN(c2ncnc3c2oc2ccccc23)CC1 | 613 s |
| CC(C)NC(=O)c1cc(=O)[nH]c2c(Cl)cccc12 | 737 s |
| CCOC(=O)c1ccc(NS(=O)(=O)c2cc3n(c2)CCCN(C)C3=O)cc1 | 711 s |
| Cc1ccc(CNC(=O)C(C)Oc2cc(C(F)(F)F)c3c(C)nn(C)c3n2)cc1 (stereo not given) | 1030 s |
| Cc1cc(-c2nnc(C3CC3)o2)c(C)n1CC(=O)NCc1ccc(Cl)cc1 | 850 s |
| COC(=O)c1c(-c2cccc(F)c2)noc1NCc1ccc(OC)cc1OC | 548 s |
| Cc1csc(CN2CCN(C(=O)c3cc(Cl)ccc3Cl)CC2)n1 | 654 s |
| Cn1cc(-c2cc3n(n2)CCCN3C(=O)CCC(=O)NCCC2=CCCCC2)c2ccccc21 | 920 s |
| CCc1ccc(NC2CC(=O)N(c3ccc(OC)cc3OC)C2=O)cc1 (stereo not given) | 887 s |
| O=C(Cn1cccc(-c2nc(-c3ccc(Br)cc3)no2)c1=O)NCc1ccccc1 | 939 s |
| CCOC(=O)C(=O)NCc1ccccc1Cl | 735 s |

| Compound | RP-LC retention time |
| --- | --- |
| CCc1ccc(CNC(=O)C2CCCN(c3nnc(C)c4c(C)n(-c5ccccc5)nc34)C2)cc1 (stereo not given) | 795 s |
| CC(C)N1CCN(C(=O)c2nc(N3CCSCC3)c3cnn(C)c3n2)CC1 | 577 s |
| CCc1nc2c(NC(=O)c3ccc(Br)cc3)cccn2n1 | 914 s |
| Cc1ccc(-c2nnc(N3CCC(C(=O)NC(C)c4ccccc4)CC3)o2)cc1 (stereo not given) | 886 s |
| COc1cc(NC(=O)Cn2nc(N3CCCC3)c3ccccc3c2=O)cc(OC)c1 | 918 s |
| Cn1c(C(=O)NCc2cccc(F)c2)cc2ccncc21 | 609 s |
| O=C(Nc1cnn(-c2ncncc2N2CCOCC2)c1)c1ccc(C(F)(F)F)cc1 | 714 s |
| COc1cc(NC(=O)c2cnc(-c3ccccc3)nc2-c2ccncc2)cc(OC)c1 | 879 s |
| Cc1ccc(-n2ccnc2SCc2nc(-c3cccc(F)c3)no2)cc1 | 971 s |
| CCCN1CCN(C(=O)c2sc(-c3cn(C(C)C)c4ncccc34)nc2C)CC1 | 619 s |
| O=C1NCCCCCCN(C(=O)Nc2ccccc2F)[C@H]2CCC[C@@H]12 | 805 s |
| CCOCC(=O)Nc1ccc(-c2ccc(S(C)(=O)=O)nn2)cc1 | 645 s |
| O=C(Cn1nc2c3ccccc3ncn2c1=O)Nc1cccc(C(F)(F)F)c1 | 733 s |
| OC(COc1ccccc1)CN1CCN(c2ccccc2)CC1 (stereo not given) | 724 s |
| Cc1noc(-c2ccc(=O)n(CC(=O)NC3CCc4ccccc43)c2)n1 (stereo not given) | 669 s |
| Cc1cc(C)cc(C(=O)NC2CCN(c3cc(-c4ccc(F)cc4)[nH]n3)C2)c1 (stereo not given) | 795 s |
| O=C(Cc1cc(-c2ccc(Cl)cc2)on1)NCCC1=CCCCC1 | 584 s |
| O=C(/C=C/c1ccccc1Cl)c1ccc(O)cc1 | 944 s |
| CCn1c(C)c(C(=O)CN(CC2CCCO2)C(=O)c2cccc(F)c2)c(C)c1C(=O)OC (stereo not given) | 896 s |
| COc1ccc(S(=O)(=O)CCC(=O)NC(C(=O)N2CCCc3ccccc32)c2ccccc2)cc1 (stereo not given) | 928 s |
| Cc1ccc2c(C)nc(NC3=NCN(Cc4ccccc4)CN3)nc2c1 | 772 s |
| COc1ccc(-c2nc3cnccn3c2Nc2ccc(F)cc2)cc1OC | 768 s |
| CC(=O)N1CCc2cc(S(=O)(=O)CCC(=O)N3CCC(CCOc4ccccc4)C3)ccc21 (stereo not given) | 822 s |

| Compound | RP-LC retention time |
| --- | --- |
| CCOC(=O)[C@@H](N)Cc1ccc(O)c(O)c1 | 579 s |
| O=C(Nc1ccccc1-c1nc2ccccc2s1)c1c(F)cccc1F | 1270 s |
| CCCCCN1CC(=O)N(c2cccc(Cl)c2)[C@@H]2CS(=O)(=O)C[C@@H]21 | 854 s |
| Cc1ccc(-n2c(N3CCCC(C(=O)NCCCOC(C)C)C3)nc3ccsc3c2=O)cc1 (stereo not given) | 838 s |
| Cc1nn2c(CNC(=O)C(C)Oc3cccc(Cl)c3)c(C)nc2s1 (stereo not given) | 676 s |
| COc1ccc(C)cc1NC(=O)C1CCN(S(=O)(=O)c2cn(C(C)C)cn2)CC1 | 810 s |
| Cc1nc(-c2ccncc2)nc2c1CCC(=O)N2C1CCCC1 | 773 s |
| Cc1cc(C)cc(NC(=O)C2CCN(C(=O)c3ncn4c3COC(c3ccccc3)C4)CC2)c1 (stereo not given) | 856 s |
| COc1ccc(C2CCCN2C(=O)c2c(Br)cnn2C)cc1 (stereo not given) | 841 s |
| O=C(Nc1ccccc1)C1CCCN(S(=O)(=O)c2cc(-c3noc(C4CCC4)n3)cs2)C1 (stereo not given) | 1140 s |
| COc1cccc(CNC(=O)C2CCCN2S(=O)(=O)c2ccc3c(c2)C(C)(C)C(=O)N3C)c1 (stereo not given) | 821 s |
| Cc1nn2c(S(=O)(=O)NCc3cccs3)c(C)nc2s1 | 704 s |
| Cn1cccc1C(=O)C(=O)Nc1ccc(Cl)c(C(F)(F)F)c1 | 1130 s |
| Cc1oc2ncnc(N3CCOCC3)c2c1C(=O)N1CCCc2ccccc21 | 790 s |
| CCCN1C(=O)COc2ccc(-c3noc(-c4ccccc4F)n3)cc21 | 1160 s |
| Cc1ccc(-c2ccc(=O)n(Cc3noc(C(=O)NCCN4CCC(C)CC4)n3)n2)cc1 | 677 s |
| CCc1nc2cc(N3CCC(C(=O)Nc4cc(C)ccc4OC)CC3)cnc2nc1CC | 992 s |
| Cc1nn(-c2ccc(N3CCOCC3)nn2)c(C)c1CCC(=O)NCc1ccco1 | 633 s |
| Cc1cccc(NC(=O)N2CCC(n3cnc4cc(Cl)ccc4c3=O)CC2)c1 | 877 s |
| O=C(NCC1(c2cccs2)CCOCC1)C(=O)Nc1cccnc1 | 600 s |
| Cc1cc(=O)n(CC(=O)Nc2cc(F)ccc2C)c(N)n1 | 608 s |
